Measurements: US6511978B1, “Pyrrole derivatives useful for farnesyl transferase inhibitors and their preparations” (LG Life Sciences, Ltd., priority 1999, dated 2003)

Tests used:
Ras farnesyl transferase [1] = target: T1, Ras farnesyl transferase (Rattus norvegicus, UniProt Q02293+Q04631); assay: In vivo (intracellular) Ras farnesylation inhibition in Rat2 cell line expressing C-Harvey-Ras; format: cell-based; conditions: Rat2 cells expressing C-Harvey-Ras; concentration inhibiting 50% of farnesyl binding; read-out: H-Ras CIC50
T1 construct: endogenous in cells; host or cells: Rat2 fibroblasts transformed with C-Harvey-Ras or with the H-Ras/K-Ras polybasic-domain fusion
How it was run: (§1)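 Transformed Rat2 fibroblasts treated with compound (1% DMSO) for 4 h, then labelled with [^35S]methionine 150 μCi/ml for 20 h. Ras immunoprecipitated with Y13-259 and resolved on 13.5% SDS-PAGE autoradiography; CIC50 is concentration inhibiting 50% of farnesylated Ras band.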

Ras farnesyl transferase [2] = target: T1, Ras farnesyl transferase; assay: In vivo (intracellular) Ras farnesylation inhibition in Rat2 cell line transformed with H-Ras fused with polybasic lysine domain of K-Ras; format: cell-based; conditions: Rat2 cells transformed with H-Ras/K-Ras polybasic domain fused protein; concentration inhibiting 50% of farnesyl binding; read-out: K-Ras CIC50
How it was run: as §1

Ras farnesyl transferase [3] = target: T2, Ras farnesyl transferase (Homo sapiens, UniProt P49354+P49356); assay: Ras farnesyl transferase enzyme inhibition, K-Ras substrate (H-Ras fused with polybasic lysine domain of K-Ras); format: biochemical; conditions: K-Ras substrate (fused protein of H-Ras with polybasic lysine domain of K-Ras); recombinant farnesyl transferase
T2 construct: made in house

Ras farnesyl transferase [4] = target: T2, Ras farnesyl transferase; assay: Ras farnesyl transferase enzyme inhibition, H-Ras substrate; format: biochemical; conditions: H-Ras substrate protein; recombinant farnesyl transferase; 30 minutes at 37° C.

IC50 (Ras farnesyl transferase [1]) [µM]	IC50 (Ras farnesyl transferase [2]) [µM]	IC50 (Ras farnesyl transferase [3]) [µM]	IC50 (Ras farnesyl transferase [4]) [µM]	Structure (SMILES)
> 0.05	> 10	> 0.03	< 0.03	O=[N+]([O-])c1cn(Cc2cncn2Cc2ccc3ccccc3c2)cc1-c1cccc2ccccc12 [Example 49, 1-[1-(naphthalen-2-ylmethyl)-1H-imidazol-5-ylmethyl]-4-(naphthalen-1-yl)-3-nitro-1H-pyrrole]
> 0.05	> 10	> 0.03	> 0.03	Nc1cn(Cc2cncn2Cc2ccc(Cl)cc2)cc1-c1cccc2ccccc12 [Example 50, 3-amino-1-[1-(4-chlorobenzyl)-1H-imidazol-5-ylmethyl]-4-(naphthalen-1-yl)-1H-pyrrole]
< 0.01	> 10	< 0.03	< 0.01	Cc1ncn(Cc2ccc3c(c2)OCO3)c1Cn1cc(C(=O)N2CCN(C)CC2)c(-c2cc(Br)cc3ccccc23)c1 [Example 51, 4-(3-bromonaphthalen-1-yl)-1-[4-methyl-1-(3,4-methylenedioxybenzyl)-1H-imidazol-5-ylmethyl]-3-(4-methylpiperazin-1-yl)carbonyl-1H-pyrrole]
< 0.01	> 10	< 0.03	< 0.01	Cc1ncn(Cc2ccc3c(c2)OCO3)c1Cn1cc(C(=O)N2CCN(C)CC2)c(-c2cc(Cl)cc3ccccc23)c1 [Example 52, 4-(3-chloronaphthalen-1-yl)-1-[4-methyl-1-(3,4-methylenedioxybenzyl)-1H-imidazol-5-ylmethyl]-3-(4-methylpiperazin-1-yl)carbonyl-1H-pyrrole]
< 0.01	> 10	< 0.03	< 0.01	Cc1ncn(Cc2ccc3ccccc3c2)c1Cn1cc(C(=O)N2CCN(C)CC2)c(-c2cc(Br)cc3ccccc23)c1 [Example 53, 4-(3-bromonaphthalen-1-yl)-1-[4-methyl-1-(naphthalen-2-yl)methyl-1H-imidazol-5-ylmethyl]-3-(4-methylpiperazin-1-yl)carbonyl-1H-pyrrole]
< 0.01	> 10	< 0.03	< 0.01	Cc1ncn(Cc2ccc3ccccc3c2)c1Cn1cc(C(=O)N2CCN(C)CC2)c(-c2cc(Cl)cc3ccccc23)c1 [Example 54, 4-(3-chloronaphthalen-1-yl)-1-[4-methyl-1-(naphthalen-2-yl)methyl-1H-imidazol-5-ylmethyl]-3-(4-methylpiperazin-1-yl)carbonyl-1H-pyrrole]
< 0.01	> 10	< 0.03	< 0.01	Cc1ncn(Cc2ccc3ccccc3c2)c1Cn1cc(C(=O)N2CCN(C)CC2)c(-c2cccc3ccccc23)c1 [Example 55, 1-[4-methyl-1-(naphthalen-2-yl)methyl-1H-imidazol-5-ylmethyl]-3-(4-methylpiperazin-1-yl)carbonyl-4-(naphthalen-1-yl)-1H-pyrrole]
